Laboratory results: ChEMBL document CHEMBL5126611, “Design, Synthesis, and Biological Evaluations of Pyridyl 4,5,6,7-Tetrahydro-4,7-Methanobenzo[d]isoxazoles as Potent and Selective Inhibitors of 11β-Hydroxylase” (J Med Chem, 2022)

What was measured:
[1] = target: T1, Cytochrome P450 11B2, mitochondrial (Homo sapiens, UniProt P19099); test: Inhibition of human CYP11B2 expressed in Chinese hamster V79 MZh cells using [14C]-deoxycorticosteron as substrate measured after 6 hrs by phosphoimager analysis; assay type: ADME, cell-based
T1 sequence (P19099 whole entry): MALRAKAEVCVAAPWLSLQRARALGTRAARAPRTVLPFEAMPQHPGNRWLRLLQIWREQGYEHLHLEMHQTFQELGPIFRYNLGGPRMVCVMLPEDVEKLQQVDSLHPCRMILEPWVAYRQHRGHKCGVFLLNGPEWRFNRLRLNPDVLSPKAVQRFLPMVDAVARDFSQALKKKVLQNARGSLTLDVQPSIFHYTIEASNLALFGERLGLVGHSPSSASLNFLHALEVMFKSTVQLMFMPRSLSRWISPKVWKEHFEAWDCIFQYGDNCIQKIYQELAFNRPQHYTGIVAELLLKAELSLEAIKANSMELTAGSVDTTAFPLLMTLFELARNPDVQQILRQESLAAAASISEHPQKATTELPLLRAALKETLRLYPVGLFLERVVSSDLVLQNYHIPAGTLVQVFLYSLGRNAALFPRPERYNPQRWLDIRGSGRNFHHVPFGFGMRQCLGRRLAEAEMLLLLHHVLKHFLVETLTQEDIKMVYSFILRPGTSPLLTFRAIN

[2] = Selectivity ratio of IC50 for inhibition of human CYP11B2 to IC50 for inhibition of human CYP11B1; assay type: ADME
[3] = target: T2, Aromatase (Homo sapiens, UniProt P11511); test: Inhibition of human placental microsome CYP19 using [1beta-3H]-androstenedione as substrate; assay type: ADME, microsomes, Placenta
T2 sequence (P11511 whole entry): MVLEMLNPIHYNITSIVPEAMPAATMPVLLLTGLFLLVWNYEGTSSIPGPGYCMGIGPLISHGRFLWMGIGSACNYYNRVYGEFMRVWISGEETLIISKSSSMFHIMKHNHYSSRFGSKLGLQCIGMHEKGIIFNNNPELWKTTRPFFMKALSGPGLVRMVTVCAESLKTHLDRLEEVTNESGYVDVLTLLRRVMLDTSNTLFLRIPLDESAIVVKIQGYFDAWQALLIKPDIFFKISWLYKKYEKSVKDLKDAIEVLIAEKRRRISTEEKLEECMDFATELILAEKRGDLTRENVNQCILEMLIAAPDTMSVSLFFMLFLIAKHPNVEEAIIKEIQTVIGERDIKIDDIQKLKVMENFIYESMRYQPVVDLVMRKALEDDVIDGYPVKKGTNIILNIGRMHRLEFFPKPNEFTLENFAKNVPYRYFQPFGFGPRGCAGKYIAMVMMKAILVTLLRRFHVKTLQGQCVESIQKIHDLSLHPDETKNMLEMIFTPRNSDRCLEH

[4] = Cytotoxicity against human HepG2 cells assessed as reduction in cell viability; assay type: toxicity, cell-based; settings: read-out: LC50 (the source's name)
[5] = Bioavailability in Sprague-Dawley rat at 5 mg/kg, iv measured up to 24 hrs by LC-MS analysis; assay type: ADME, organism-based; settings: in vivo
[6] = Reduction of cortisol elevation in Sprague-Dawley rat at 25 mg/kg, po measured after 4 hrs by liquid chromatography-tandem mass spectrometry analysis (reference value: 376+/- 22 ng/L); assay type: functional
[7] = target: T3, Cytochrome P450 11B1, mitochondrial (Rattus norvegicus, UniProt P15393); test: Inhibition of rat CYP11B1; assay type: ADME
T3 sequence (P15393 whole entry): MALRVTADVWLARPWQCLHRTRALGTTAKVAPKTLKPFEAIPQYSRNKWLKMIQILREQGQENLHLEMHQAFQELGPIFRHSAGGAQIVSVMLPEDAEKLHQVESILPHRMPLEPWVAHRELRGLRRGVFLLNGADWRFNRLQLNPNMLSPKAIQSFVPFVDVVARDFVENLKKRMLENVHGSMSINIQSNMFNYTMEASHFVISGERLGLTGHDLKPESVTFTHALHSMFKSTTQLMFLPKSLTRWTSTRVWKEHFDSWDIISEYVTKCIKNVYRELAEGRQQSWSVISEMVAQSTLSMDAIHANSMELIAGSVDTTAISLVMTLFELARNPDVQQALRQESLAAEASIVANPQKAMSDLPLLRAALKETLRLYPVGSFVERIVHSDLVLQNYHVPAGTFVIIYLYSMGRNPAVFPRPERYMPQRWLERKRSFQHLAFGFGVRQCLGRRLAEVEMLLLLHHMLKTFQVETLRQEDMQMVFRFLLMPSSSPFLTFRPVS

## O=C(Nc1ccc2[nH]ncc2c1)[C@]12ON=C(c3cccnc3)[C@H]1[C@@H]1CC[C@H]2C1
[1]
  IC50: 1.12 µM
[2]
  Ratio IC50: 125
[3]
  IC50: > 10 µM
[4]
  CC50: > 50 µM
[5]
  bioavailability: 21.4%
[6]
  Activity: 28 ng/L
[7]
  IC50: 0.025 µM
